{"source": "patent US20070196360A1", "about": "“SUCCINIMIDE AND MALEIMIDE DERIVATIVES AND THEIR USE AS TOPOISOMERASE II CATALYTIC INHIBITORS” (TOPOTARGET A/S, priority 2001, published 2007)", "key": {"[1]": {"tested_on": "cultured human cancer cells", "experiment": "Clonogenic assay (cytotoxicity; antagonism of topoisomerase II poison cytotoxicity)", "conditions": "for inhibition of the toxicity of the classical poisons (protection): poisons VP16, DAU, IDA; for IC50: Homo sapiens, read-out: IC50 (clonogenic assay)", "quoted_text": "The information derived from the clonogenic assay is cytotoxicity.\nA 3-week clonogenic assay is used. […] The number of cells is adjusted to obtain 2000 to 3000 colonies in the control dishes. Finally, the colonies are counted."}, "[2]": {"biological_target": "T1, purified topoisomerase II α (Homo sapiens, UniProt P11388)", "T1 sequence (P11388 whole entry)": "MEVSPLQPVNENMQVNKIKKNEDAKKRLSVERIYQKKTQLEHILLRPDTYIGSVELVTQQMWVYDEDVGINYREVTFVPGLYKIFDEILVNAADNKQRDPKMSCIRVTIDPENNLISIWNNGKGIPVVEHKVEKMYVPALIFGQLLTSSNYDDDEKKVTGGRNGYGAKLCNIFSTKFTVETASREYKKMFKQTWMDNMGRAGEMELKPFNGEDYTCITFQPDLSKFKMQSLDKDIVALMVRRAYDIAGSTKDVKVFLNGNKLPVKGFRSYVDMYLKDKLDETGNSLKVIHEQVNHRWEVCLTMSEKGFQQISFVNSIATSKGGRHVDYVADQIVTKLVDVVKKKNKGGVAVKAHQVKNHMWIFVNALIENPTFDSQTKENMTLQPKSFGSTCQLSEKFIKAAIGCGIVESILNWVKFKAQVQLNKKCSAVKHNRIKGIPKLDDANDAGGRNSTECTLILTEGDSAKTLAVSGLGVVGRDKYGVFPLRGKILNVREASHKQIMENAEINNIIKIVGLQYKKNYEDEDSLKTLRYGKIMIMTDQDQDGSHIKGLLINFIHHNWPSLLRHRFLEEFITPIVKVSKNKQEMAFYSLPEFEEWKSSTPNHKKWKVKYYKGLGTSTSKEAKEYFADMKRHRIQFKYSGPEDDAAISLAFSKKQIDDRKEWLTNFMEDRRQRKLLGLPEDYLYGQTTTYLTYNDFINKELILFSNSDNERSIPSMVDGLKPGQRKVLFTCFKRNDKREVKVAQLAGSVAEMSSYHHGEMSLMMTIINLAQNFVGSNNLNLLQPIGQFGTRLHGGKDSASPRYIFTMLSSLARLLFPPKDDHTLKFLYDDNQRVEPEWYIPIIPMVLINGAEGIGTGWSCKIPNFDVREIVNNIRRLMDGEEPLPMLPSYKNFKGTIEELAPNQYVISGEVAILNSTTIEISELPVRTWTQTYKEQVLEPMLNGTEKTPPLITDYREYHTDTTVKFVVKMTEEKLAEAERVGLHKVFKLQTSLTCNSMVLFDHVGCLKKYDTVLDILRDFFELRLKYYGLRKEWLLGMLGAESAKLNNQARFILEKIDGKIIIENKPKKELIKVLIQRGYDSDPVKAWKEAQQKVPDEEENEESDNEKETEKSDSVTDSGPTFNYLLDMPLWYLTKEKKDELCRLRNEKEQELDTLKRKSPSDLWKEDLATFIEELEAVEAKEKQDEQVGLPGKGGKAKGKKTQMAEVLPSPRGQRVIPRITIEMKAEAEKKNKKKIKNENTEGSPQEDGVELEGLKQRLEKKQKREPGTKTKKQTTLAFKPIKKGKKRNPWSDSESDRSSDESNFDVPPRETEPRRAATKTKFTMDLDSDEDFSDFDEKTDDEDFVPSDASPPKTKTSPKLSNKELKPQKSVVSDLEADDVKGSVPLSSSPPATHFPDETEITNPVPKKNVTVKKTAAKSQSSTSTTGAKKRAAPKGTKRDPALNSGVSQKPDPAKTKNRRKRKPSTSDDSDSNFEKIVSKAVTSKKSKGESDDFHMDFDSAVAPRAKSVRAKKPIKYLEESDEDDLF", "experiment": "Decatenation assay (kDNA decatenation)", "format": "biochemical", "from_the_text": "The decatenation assay is a direct measurement of a given compounds inhibitory action on purified topoisomerase II enzyme. The general role of the topoisomerase II enzyme in living cells is to cause decatenation of catenated DNA during cell division. If a compound is able to inhibit this decatenation, the compound is an inhibitor of the topoisomerase II enzyme. While this assay is capable of determining whether a given compound is active against topoisomerase II, information concerning the exact mode of action is not provided.\nTopoisomerase II catalytic activity is measured by kDNA decatenation. ^3H labelled kDNA is isolated from Crithidia fasciculata (ATCC, Manassas, Va.) as described in (24). Briefly, relevant concentrations of the test compound in buffer (50 mM Tris-Cl, pH8, 120 mM KCl, 10 mM MgCl2, 1.0 mM ATP, […]) and purified topoisomerase II α is incubated with […] for 15 min at 37° C. in a final volume of 20 μl. After addition of stop buffer/loading dye mix (5% Sarkosyl, 0.0025% bromophenol blue, 25% glycerol), samples are loaded on 1% agarose/0.5% ethidium bromide gels and run in TBE buffer containing […] ethidium bromide at 100V for approximately 50 min and photographed under UV light. In addition, loading wells are cut out and scintillation counted to obtain numerical values. These values are then plotted against drug concentration to obtain dose-response curves enabling the determination of IC50 values for individual compounds."}, "OC—NYH cells": {"tested_on": "OC—NYH cells", "experiment": "Alkaline elution (single strand DNA breaks, SSBs)", "method": "This assay thus provides information concerning a given compounds ability to cause (or antagonize in the case of topoisomerase II catalytic inhibitors in the combination with classical topoisomerase II poisons) DNA damage in intact cells.\nThe assays for SSBs and for DPCs (DNA-protein cross-links) are performed according to Kohn et. al (23).\nFor measurement of single-strand breaks (SSBs), L1210 cells used as internal standard are exposed to 100 μM H2O2 for 60 min on ice, corresponding to an irradiation dose of 300 rad as described by Szmigiero and Studzian (25). OC—NYH cells are incubated in medium supplemented with the indicated drug at 37° C. for the specified periods, washed in 10 mL ice-cold PBS and then lysed on the filter (Nucleopore, 2.0 μM pore size) with 5 mL of SDS-EDTA lysis solution (2% SDS, 0.1 glycine and 0.025 M Na2EDTA) at pH 10, followed by addition of 1.5 mL SDS-EDTA lysis solution supplemented with 0.5 mg/mL proteinase K. Mixing of standard and experimental cells is done immediately prior to lysis. […] Fractions are collected at 20-min intervals for 2 h. Filters are treated with 400 μL 1 N HCl for 1 h at 60° C., cooled and 0.4 M NaOH is added prior to scintillation counting."}, "[3]": {"biological_target": "T1, purified topoisomerase II α", "experiment": "Plasmid cleavage assay", "format": "biochemical", "description": "The plasmid cleavage assay is capable of assessing wether a given compound stimulates topoisomerase II mediated DNA cleavage in the test tube. A modification of the protocol described in (Burden et al., 2001) is used. 350 ng purified human topoisomerase II α, 400 ng pUC18 DNA, and increasing concentrations of drugs were incubated for 6 min at 37° C. in 20 μl topoisomerase II cleavage buffer (10 mM TRIS-HCL pH 7.9, 50 mM NaCl, 50 mM KCl, 5 mM CaCl2, 1 mM EDTA, 15 μg/ml BSA and 1 mM Na2ATP, all from Sigma Chemical Co., St. Louis, Mo., USA). Next, the cleavable complex was trapped by adding 2 μl 10% SDS. After vigorous vortexing 1.5 μl 0.25 M EDTA and 2 μl proteinase K (0.8 μg/ml) in proteinase buffer (50 mM Tris-HCL pH=7.9, 1 mM CaCl2) was added and the samples vortexed. After a 30 min incubation at 45° C., 5 μl loading buffer (5% Sarkosyl, 0.0025% bromophenol blue, 25% glycerol) was added and the samples were exposed to 70° C. for 5 min. Next, samples were run through a 0.8 % agarose gel in 1× TAE buffer for three hours at 5 V/cm to separate different topological forms of plasmid DNA. Finally the gels were strained in distilled water containing 10 μg/ml ethidium bromide for 15 min followed by de-strained in distilled water for one hour before they were photographed in UV light. […] Further, compounds not capable of stimulating topoisomerase mediated DNA cleavage while being active in the decatenation assay are also classified as topoisomerase II catalytic inhibitors."}, "[4]": {"conditions": "animal studies and patients; cited from earlier work"}, "[5]": {"tested_on": "extractable topoisomerase II in OC—NYH cells", "experiment": "Band depletion assay", "method": "OC—NYH cells are incubated for 1 h at 37 C in RPMI 1640 with 10% of fetal calf serum with the desired compounds for test. Thereafter, whole cell lysates were obtained at 4 C. Exponentially growing cells were harvested and washed in PBS. Cells are resuspended in 0.2 mL ELB-buffer (NaCl 0.25 M, NP40 0.1%, HEPES 50 mM, EDTA 5 mM) containing aprotinin 1 μg/ml, leupeptin 1 μg/ml, DTT 1M and PMSF 0.3 mM and lysed for 30 min. Pellets are spun down at 20000×g for 20 min. The protein concentration of the supernatants is measured, and the supernatants are diluted with an equal volume of glycerol.\nAfter heating the nuclear extracts for 5 min at 95 C, the sample is immediately loaded on a 7% SDS-PAGE gel containing 5% glycerol. Thereafter, all steps are performed at RT. The separated proteins are transferred to Trans-Blot® Nitrocellulose, in a Mini Trans-blot® Electrophoretic Transfer Cell with 25 mM Tris, 192 mM glycine and 205 v/v methanol, pH 8.3 at 210 mA for 1 h. Membranes are blocked in 10% milk in TBS-T for 1 h and probed with either topoisomerase II as (1:1000) 1 h. Horseradish-peroxidase-conjugated donkey-antirabbit antibodies are used as secondary antibodies. The blots are developed using ECL™reagent 1 min and thereafter exposed on films for 5 min. Quantification of can be made by densitometric scanning."}, "[6]": {"tested_on": "NCI-H69, NCI-H69/DAU and NCI-H69/VP", "experiment": "Clonogenic assay on NCI-H69 and multi drug resistant derivatives", "format": "cell-based, human", "conditions": "NCI-H69 versus NCI-H69/DAU and NCI-H69/VP", "from_the_text": "Further corroboration of catalytic inhibitory activity of compounds of formula M was found in clonogenic assays on human lung cancer cell lines H69/dau and H69/VP because no resistance to compounds of formula M was found in these cell lines which are selected to be daunorubicin and, etopside (VP-16) resistant respectively.\nA 3-week clonogenic assay is used. […] Finally, the colonies are counted."}, "[7]": {"conditions": "read-out: IC50, topoisomerase II decatenation"}, "[8]": {"conditions": "compound 75 uM, daunorubicin 0.3 uM"}, "[9]": {"conditions": "etoposide 50 uM, compound between 5 and 625 uM"}, "[10]": {"conditions": "FIG. 7, read-out: IC50, decatenation assay"}}, "note": "“Also recorded” adds a separate entry of the source. Where two headings read alike, the source gives them in different places. Marks after values point to notes of the source that are not given here.", "data": [{"smiles": "O=C1CC(NCCNC2CC(=O)NC2=O)C(=O)N1", "note": "(stereo not shown) [I-21, N,N′-Di-(pyrrolidine-2′,5′-dione-3′-yl)-ethylene-1,2-diamine]", "values": [{"measurement": "protection class", "setting": "[1]; compound 500 uM, VP-16 20 uM", "value": "+ (The + indicates, that the protection. i.e. log(number of surviving cells) is about 1.)"}, {"measurement": "survival", "setting": "[1]; compound 500 uM, VP-16 20 uM", "value": "≤ 1", "unit": "%"}, {"measurement": "LD50", "setting": "[1]; compound alone", "value": "LD50 = 750 uM."}, {"measurement": "toxic to cells", "setting": "[1]; lower pH", "value": "pH 7.4. Tax at lower"}, {"measurement": "toxic to cells", "setting": "[1]; pH 7.4", "value": "Not toxic to cells"}, {"measurement": "inhibition of the toxicity of the classical poisons (protection)", "setting": "[1]", "value": "Only very weak"}, {"measurement": "concentration from which topoisomerase II decatenation is inhibited", "setting": "[2]", "value": "above 500 uM. IC50"}, {"measurement": "IC50", "setting": "[2]; [7]", "value": "~800", "unit": "µM"}, {"measurement": "effect on the VP-16 induced SSBs", "setting": "OC—NYH cells; compound from 50-500 uM", "value": "No effect on the VP-16"}]}, {"smiles": "CC(CNC1CC(=O)NC1=O)NC1CC(=O)NC1=O", "note": "(stereo not shown) [I-112]", "values": [{"measurement": "protection against VP-16 toxicity", "setting": "[1]", "value": "VPneg."}, {"measurement": "protection class", "setting": "[1]; [8]", "value": "DAU(0.3[…]uM)+ up to (The + indicates, that the protection. i.e. log(number of surviving cells) is about 1.)"}, {"measurement": "survival", "setting": "[1]; [8]", "value": "≤ 20", "unit": "% survival."}, {"measurement": "LD10", "setting": "[1]; compound alone", "value": "LD10 = 75 uM."}, {"measurement": "toxic to cells", "setting": "[1]; compound given alone", "value": "no cytotoxicity; also recorded: Not toxic to cells"}, {"measurement": "inhibition of the toxicity of the classical poisons (protection)", "setting": "[1]", "value": "able to protect; also recorded: Inhibits the toxicity of"}, {"measurement": "inhibition of topoisomerase II catalytic activity (decatenation), in words", "setting": "[2]", "value": "effectively. IC50 about"}, {"measurement": "IC50", "setting": "[2]; [7]", "value": "~100", "unit": "µM"}, {"measurement": "inhibition of VP-16 induced SSBs", "setting": "OC—NYH cells; compound at 250 uM, FIG. 4: etoposide 3 μM", "value": "reversal; also recorded: Effective inhibition of"}]}, {"smiles": "C[C@@H](CN1CC(=O)NC(=O)C1)N1CC(=O)NC(=O)C1", "note": "[ICRF-187, (+)-1,2-bis(3,5-dioxopiperazinyl-1-yl)propane, reference compound]", "values": [{"measurement": "protection class", "setting": "[1]; compound 500 uM, idarubicin 0.01 μM", "value": "(IDA(0.01)+ up to (The + indicates, that the protection. i.e. log(number of surviving cells) is about 1.)"}, {"measurement": "survival", "setting": "[1]; compound 500 uM, idarubicin 0.03", "value": "≤ 40", "unit": "% survival)*"}, {"measurement": "LD50", "setting": "[1]; compound alone", "value": 750, "unit": "µM"}, {"measurement": "toxic to cells", "setting": "[1]; compound given alone", "value": "no toxicity and Not"}, {"measurement": "inhibition of the toxicity of the classical poisons (protection)", "setting": "[1]", "value": "Effective inhibitor of"}, {"measurement": "antagonism of etoposide induced DNA cleavage", "setting": "[3]", "value": "cleavage. No"}, {"measurement": "inhibition of topoisomerase II catalytic activity (decatenation), in words", "setting": "[2]", "value": "effectively. IC50 about"}, {"measurement": "IC50", "setting": "[2]; [7]", "value": "~50", "unit": "µM"}, {"measurement": "protection against anthracycline extravasation injuries", "setting": "[4]", "value": "protected"}, {"measurement": "reversal of etoposide (VP-16) induced SSBs", "setting": "OC—NYH cells; compound 500 μM, etoposide 3 μM (FIG. 4)", "value": "reversal"}, {"measurement": "inhibition of VP-16 induced SSBs", "setting": "OC—NYH cells; compound at 200 uM", "value": "Effective inhibition of"}]}, {"smiles": "CCN1C(=O)C=CC1=O", "note": "[NEM, N-ethyl-maleimide]", "values": [{"measurement": "IC50", "setting": "[1]", "value": 4, "unit": "µM"}, {"measurement": "antagonism of etoposide induced DNA cleavage", "setting": "[3]", "value": "capable of antagonising"}, {"measurement": "stimulation of topoisomerase II mediated DNA cleavage", "setting": "[3]", "value": "does not stimulate"}, {"measurement": "antagonism of etoposide induced DNA cleavage", "setting": "[3]; [9]", "value": "Strong"}, {"measurement": "inhibition of topoisomerase II catalytic activity (decatenation), in words", "setting": "[2]", "value": "Very potent,"}, {"measurement": "IC50", "setting": "[2]; [10]", "value": "~4", "unit": "µM"}, {"measurement": "IC50", "setting": "[2]; [7]", "value": 5, "unit": "µM"}, {"measurement": "DNA damage by the compound itself", "setting": "OC—NYH cells; concentrations up to 250 uM", "value": "Only limited DNA"}]}, {"smiles": "CN1C(=O)C=CC1=O", "note": "[NMM, N-methyl-maleimide]", "values": [{"measurement": "antagonism of etoposide and daunorubicin mediated cytotoxicity", "setting": "[1]", "value": "effectively blocked"}, {"measurement": "IC50", "setting": "[1]", "value": 4, "unit": "µM"}, {"measurement": "inhibition of topoisomerase II catalytic activity (decatenation), in words", "setting": "[2]", "value": "Very potent,"}, {"measurement": "IC50", "setting": "[2]; [10]", "value": "~4", "unit": "µM"}, {"measurement": "IC50", "setting": "[2]; [7]", "value": 5, "unit": "µM"}]}, {"smiles": "COc1cc([C@@H]2c3cc4c(cc3[C@@H](O[C@@H]3O[C@@H]5CO[C@@H](C)O[C@H]5[C@H](O)[C@H]3O)[C@H]3COC(=O)[C@H]23)OCO4)cc(OC)c1O", "note": "[etoposide, reference compound]", "values": [{"measurement": "extractable amount of topoisomerase II", "setting": "[5]; cells treated with 100 μM", "value": "clearly reduced"}]}, {"smiles": "O=C1C=CC(=O)N1", "note": "[maleimide]", "values": [{"measurement": "antagonism of etoposide and daunorubicin mediated cytotoxicity", "setting": "[1]", "value": "effectively blocked"}, {"measurement": "survival", "setting": "[1]; compound 0.5 uM, DAU 0.5 uM", "value": "up to 10%"}, {"measurement": "protection class", "setting": "[1]; compound 0.5 uM, VP-16 20 uM", "value": "(VP-16 (20 uM)+ (The + indicates, that the protection. i.e. log(number of surviving cells) is about 1.)"}, {"measurement": "survival", "setting": "[1]; compound 0.5 uM, VP-16 20 uM", "value": "up to 30%"}, {"measurement": "LD50", "setting": "[1]; compound alone", "value": "LD50 4 uM."}, {"measurement": "toxic to cells", "setting": "[1]; compound given alone", "value": "toxic to cells in itself; also recorded: Very toxic to"}, {"measurement": "inhibition of poison induced cell toxicity", "setting": "[1]; etoposide 20 μM and daunorubicin 0.3 μM (FIG. 3)", "value": "strong"}, {"measurement": "inhibition of the toxicity of the classical poisons (protection)", "setting": "[1]", "value": "Effective"}, {"measurement": "antagonism of etoposide induced DNA cleavage", "setting": "[3]", "value": "capable of antagonising"}, {"measurement": "stimulation of topoisomerase II mediated DNA cleavage", "setting": "[3]", "value": "does not stimulate"}, {"measurement": "antagonism of etoposide induced DNA cleavage", "setting": "[3]; [9]", "value": "Strong"}, {"measurement": "cross resistance of MDR cell lines", "setting": "[6]", "value": "No cross resistance"}, {"measurement": "inhibition of topoisomerase II catalytic activity (decatenation), in words", "setting": "[2]", "value": "Very potent,"}, {"measurement": "IC50", "setting": "[2]; [10]", "value": "~2", "unit": "µM"}, {"measurement": "IC50", "setting": "[2]; [7]", "value": 2, "unit": "µM"}, {"measurement": "band depleting effect of etoposide", "setting": "[5]; etoposide 100 μM, compound 50 μM (FIG. 10)", "value": "completely lost"}, {"measurement": "antagonism of DNA damage induced by etoposide, daunorubicin or doxorubicin", "setting": "OC—NYH cells", "value": "antagonize"}, {"measurement": "inhibition of VP-16 induced SSBs", "setting": "OC—NYH cells; compound at 50 uM", "value": "antagonise; also recorded: Effective"}]}]}
